Among the data in patent US5739338A, “N-aryl substituted tetrahydroquinolines having retinoid agonist, retinoid antagonist or retinoid inverse agonist type biological activity” (Allergan, priority 1996, dated 1998) are Kd and IC50 values, retold here.

Broadly, the Kd is the concentration at which binding is half-saturated. What is called IC50 is the concentration needed to halve the response being measured.

One assay has as its target T1, RARα (Homo sapiens, UniProt P10276).
T1 sequence (P10276 1-462): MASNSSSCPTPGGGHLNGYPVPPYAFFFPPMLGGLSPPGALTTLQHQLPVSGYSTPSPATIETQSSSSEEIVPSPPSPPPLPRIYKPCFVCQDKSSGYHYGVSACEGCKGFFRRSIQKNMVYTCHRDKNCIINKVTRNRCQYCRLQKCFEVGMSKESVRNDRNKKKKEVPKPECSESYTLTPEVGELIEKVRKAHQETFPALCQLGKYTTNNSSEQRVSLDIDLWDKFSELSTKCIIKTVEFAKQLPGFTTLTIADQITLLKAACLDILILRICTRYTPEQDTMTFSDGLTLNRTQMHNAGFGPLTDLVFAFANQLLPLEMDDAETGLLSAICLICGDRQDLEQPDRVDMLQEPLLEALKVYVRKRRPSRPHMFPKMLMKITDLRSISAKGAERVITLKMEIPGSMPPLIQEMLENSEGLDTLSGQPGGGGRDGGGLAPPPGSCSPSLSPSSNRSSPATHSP
Kind of assay: Ligand Binding Assay, RARα. From the text: (§1) Other assays described below, measure the ability of the compounds of the present invention to bind to, and/or activate various retinoid receptor subtypes. When in these assays a compound binds to a given receptor subtype and activates the transcription of a reporter gene through that subtype, then the compound is considered an agonist of that receptor subtype. […] In the below descried assays the ability of the compounds to bind to RARα, RARβ, RARγ, RXRα, RXRβ and RXRγ receptors, and the ability or inability of the compounds to activate transcription of a reporter gene through these receptor subtypes can be tested.
(§2) A holoreceptor transactivation assay and a ligand binding assay which measure the antagonist/agonist like activity of the compounds of the invention, or their ability to bind to the several retinoid receptor subtypes, respectively, are described in published PCT Application No. WO WO93/11755 (particularly on pages 30-33 and 37-41) published on Jun. 24, 1993, the specification of which is also incorporated herein by reference. A description of the holoreceptor transactivation assay is also provided below.
(§3) CV1 cells (5,000 cells/well) were transfected with an RAR reporter plasmid MTV-TREp-LUC (50 ng) along with one of the RAR expression vectors (10 ng) in an automated 96-well format by the calcium phosphate procedure of Heyman et al. Cell 68, 397-406, (1992). For RXRα and RXRγ transactivation assays, an RXR-responsive reporter plasmid CRBPII-tk-LUC (50 ng) along with the appropriate RXR expression vectors (10 ng) was used substantially as described by Heyman et al. above, and Allegretto et al. J. Biol. Chem. 268, 26625-26633. For RXRβ transactivation assays, an RXR-responsive reporter plasmid CPRE-tk-LUC ([…]) along with RXRβ expression vector ([…]) was used as described in above. These reporters contain DRI elements from human CRBPII and certain DRI elements from promoter, respectively. (see Mangelsdorf et al. The Retinoids: Biology, Chemistry and Medicine, pp 319-349, Raven Press Ltd., New York and Heyman et al., cited above) (1, 8). A β-galactosidase (50 ng) expression vector was used as an internal control in the transfections to normalize for variations in transfection efficiency. The cells were transfected in triplicate for 6 hours, followed by incubation with retinoids for 36 hours, and the extracts were assayed for luciferase and β-galactosidase activities. The detailed experimental procedure for holoreceptor transactivations has been described in Heyman et al. above, and Allegretto et al. cited above. The results obtained in this assay are expressed in EC50 numbers, as they are also in the chimeric receptor transactivation assay. The Heyman et al. Cell 68, 397-406, Allegretto et al. J. Biol. Chem. 268, 26625-26633, and Mangelsdorf et al. The Retinoids: Biology, Chemistry and Medicine, pp 319-349, Raven Press Ltd., New York, are expressly incorporated herein by reference. The results of ligand binding assay are expressed in Kd numbers. (See Cheng et al. Biochemical Pharmacology Vol. 22 pp 3099-3108, expressly incorporated herein by reference.)

A further assay has as its target T2, RARβ (Homo sapiens, UniProt P10826).
T2 sequence (P10826 1-448 isoform P10826-2): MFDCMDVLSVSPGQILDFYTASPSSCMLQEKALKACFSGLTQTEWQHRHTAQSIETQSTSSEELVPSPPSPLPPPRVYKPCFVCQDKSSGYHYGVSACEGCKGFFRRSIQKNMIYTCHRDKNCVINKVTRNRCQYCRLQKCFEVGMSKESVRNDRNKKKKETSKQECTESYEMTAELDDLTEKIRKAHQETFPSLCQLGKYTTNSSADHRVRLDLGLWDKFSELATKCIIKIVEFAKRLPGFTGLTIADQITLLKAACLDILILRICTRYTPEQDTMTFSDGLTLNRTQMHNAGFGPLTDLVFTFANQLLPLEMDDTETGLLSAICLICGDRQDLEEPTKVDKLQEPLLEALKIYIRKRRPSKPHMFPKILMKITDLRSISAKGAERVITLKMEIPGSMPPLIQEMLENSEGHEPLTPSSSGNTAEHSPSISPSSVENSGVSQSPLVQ
Put plainly: Ligand Binding Assay, RARβ.
Excerpt: as §1, §2, §3

Another assay deals with T3, RARγ (Homo sapiens, UniProt P13631).
T3 sequence (P13631 1-454): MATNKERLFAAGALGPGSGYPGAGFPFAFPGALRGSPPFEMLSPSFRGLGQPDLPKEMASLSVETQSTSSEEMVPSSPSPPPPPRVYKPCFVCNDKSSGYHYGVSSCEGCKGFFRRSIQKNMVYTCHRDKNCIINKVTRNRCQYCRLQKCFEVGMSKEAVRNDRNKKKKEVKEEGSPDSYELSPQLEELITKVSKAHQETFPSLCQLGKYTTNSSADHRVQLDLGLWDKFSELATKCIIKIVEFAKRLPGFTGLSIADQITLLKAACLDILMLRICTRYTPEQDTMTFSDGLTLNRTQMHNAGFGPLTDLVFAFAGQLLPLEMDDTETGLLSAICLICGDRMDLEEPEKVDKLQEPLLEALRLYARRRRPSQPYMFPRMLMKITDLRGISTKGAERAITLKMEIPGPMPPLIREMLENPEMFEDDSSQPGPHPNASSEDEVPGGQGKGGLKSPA
Put plainly: Ligand Binding Assay, RARγ.
Excerpt: as §1, §2, §3

The test system of assay [1] is RARγ-VP-16 chimeric receptor. Put plainly: Retinoid inverse agonist assay: inhibition of basal luciferase activity in CV-1 cells cotransfected with RARγ-VP-16, ER-RXRα and ERE-tk-Luc. Type of assay: cell-based. The following applies: RARγ-VP-16, ER-RXRα chimeric receptor, ERE-tk-Luc reporter, read-out: IC50 (inhibition of basal luciferase activity, inverse agonism). From the text:
The activity of retinoid inverse agonists can be tested by the procedure of Klein et al. J. Biol. Chem. 271, 22692-22696 (1996) which is expressly incorporated herein by reference.
In this assay, retinoid inverse agonists are able to repress the basal activity of a RARγ-VP-16 chimeric receptor where the constituitively active domain of the herpes simplex virus (HSV) VP-16 is fused to the N-terminus of RARγ. CV-1 cells are cotransfected with RARγ-VP-16, an ER-RXRα chimeric receptor and an ERE-tk-Luc chimeric reporter gene to produce a basal level of luciferase activity, as shown by Nagpal et al. EMBO J. 12, 2349-2360 […] expressly incorporated herein by reference. Retinoid inverse agonists are able to inhibit the basal luciferase activity in these cells in a dose dependent manner and IC50 s measured.

Structures are written as SMILES.

For the compound `Cc1ccc(N2CCC(C)(C)c3ccc(C#Cc4ccc(C(=O)O)cc4)cc32)cc1` [Compound 5, 4-(2-(4,4-Dimethyl-1,2,3,4-tetrahydro-N-(4-methylphenyl)quinolin-7-yl)ethynyl)benzoic Acid], the dissociation constant (Kd) at RARα worked out at 13 nM; on RARβ, 3 nM; on RARγ, 9 nM. The IC50 in assay [1] was 1 nM.

Consider `CC1(C)CCN(c2ccccc2)c2cc(C#Cc3ccc(C(=O)O)cc3)ccc21` [Compound 10, 4-(2-(4,4-Dimethyl-1,2,3,4-tetrahydro-N-phenylquinolin-7-yl)ethynyl)benzoicAcid], for which the values for the equilibrium dissociation constant (Kd) on RARα, on RARβ and at RARγ were 147 nM, 18 nM and 52 nM, respectively.

Turning to `Cc1ccc(N2CCC(C)(C)c3ccc(C#Cc4ccc(C(=O)O)c(F)c4)cc32)cc1` [Compound 12, 4-(2-(4,4-Dimethyl-1,2,3,4-tetrahydro-N-(4-methylphenyl)quinolin-7-yl)ethynyl)-2-fluorobenzoic Acid], the results for the Kd at RARα, on RARβ and on RARγ were 101 nM, 84 nM and 530 nM, respectively.

For `Cc1ccc(N2CCC(C)(C)c3ccc(/C=C/c4ccc(C(=O)O)cc4)cc32)cc1` [Compound 14, (E)-4-(2-(4,4-dimethyl-1,2,3,4-tetrahydro-N-(4-methylphenyl)quinolin-7-yl)ethenyl)benzoic acid], the equilibrium dissociation constant (Kd) is 11 nM at RARα, 5 nM at RARβ and 15 nM at RARγ.

As to `Cc1ccc(N2C(=O)CC(C)(C)c3ccc(C#Cc4ccc(C(=O)O)cc4)cc32)cc1` [Compound 22, 4-(2-(4,4-Dimethyl-3,4-dihydro-N-(4-methylphenyl)-2(1H)-quinolinon-7-yl)ethynyl)benzoic Acid], the Kd on RARα came out at 59 nM; at RARβ, 17 nM; on RARγ, 32 nM.

As for `Cc1ccc(N2CCC(C)(C)c3ccc(C(=O)Nc4ccc(C(=O)O)cc4)cc32)cc1` [Compound 25, (4,4-dimethyl-1,2,3,4-tetrahydro-N-(4-methylphenyl)quinolin-7-carboxyl)-4-carboxyanilide], the dissociation constant Kd at RARα was 27 nM; on RARβ, > 1000 nM; on RARγ it was > 1000 nM.
